The record followed here is paper PMC9296036, “A peptide interfering with the dimerization of oncogenic KITENIN protein and its stability suppresses colorectal tumour progression” (Clinical and Translational Medicine, 2022).

“Also recorded” adds a separate entry of the source. Ends that are not written are not given here.

This assay has as its system CT-26/EV tumours. The assay can be described thus: Syngeneic subcutaneous tumour model, CT-26/EV cells in BALB/c mice. The class given is in vivo, mouse. As to conditions: CT-26/EV (no forced KITENIN overexpression), KDIP 1 mg/kg intravenously alternate days for 14 days. As to the method:
The CT‐26 cell/syngeneic mouse model was used to investigate the in vivo effects of KDIP on colorectal tumourigenesis, as it is reported that a syngeneic mouse tumour model is good for testing the anticancer effects of candidate substances.[25], [26] Male Balb/c mice (5‐week old) were purchased from DaMul Science, Korea and acclimated for 1 week prior to subcutaneous injection of syngeneic CT‐26/EV (3 × 10^6) or CT‐26/KITENIN cells (1 × 10^6) into the dorsum. Tumour volume was calculated using the following equation: V = 1/2 × a × b […], where a and b are the longest and shortest diameters of the tumour (in millimetres), respectively. Tumour volume was measured every other day for 14 days to verify the effects of KDIP. All mice were sacrificed after Day 30 (Figure 7B), and the subcutaneous tumour grafts were surgically excised and weighed.
For the experimental tumour model, CT‐26/EV or CT‐26/KITENIN‐V5 cells were injected into the right back of BALB/c mice to form tumours, and KDIP was injected intravenously according to the timeline shown in Figure 7B. Considering the suppressive effect of KDIP on the cell invasion of CT‐26 cells, the initial test dosage was set to 1 mg/kg, which is equivalent to the half‐maximal inhibitory concentration (IC50) of KDIP on cell invasion. […] After 2 weeks of treatment, the mice were sacrificed and the tumours were analysed. […]

As for YARVRRRGPRRWRLVSDEAV [KDIP], the “tumour growth (in words)” value is listed as “little effect on tumor growth; also recorded: little effect on tumour growth”.
